# Laboratory results reported in the supplement of paper PMC10307832.
# Columns and labels:
# Assay in all cases: relative viability (nuclei count vs DMSO), 5 days (fraction); higher = more cells survive
# [1] = tested on: ABC-1
# How it was run: (§1)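 Lung cancer cell lines were seeded in 1536-well plates and dosed by pin tool the next day, with either a single drug or a fixed anchor-drug dose combined with five library-drug doses (not always all listed) spaced in √10 steps. Five days later, one step fixed the cells and stained their nuclei (final 0.05% Triton X-100, 1% formaldehyde, 1 ug/ml Hoechst), and nuclei were counted on 4× images. Relative viability is the nuclei count in treated wells divided by the count in vehicle wells, and each value is the median of duplicate plates.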
# [2] = tested on: LXF-289
# How it was run: as §1
# [3] = tested on: NCI-H2347
# How it was run: as §1
# [4] = tested on: NCI-H1915
# How it was run: as §1
# [5] = tested on: NCI-H1437
# How it was run: as §1
# [6] = tested on: EKVX
# How it was run: as §1
# [7] = tested on: HCC-366
# How it was run: as §1
# [8] = tested on: NCI-H358
# How it was run: as §1
# [9] = tested on: HCC-78
# How it was run: as §1
# [10] = tested on: HARA
# How it was run: as §1
# [11] = tested on: CAL-12T
# How it was run: as §1
# [12] = tested on: UMC-11
# How it was run: as §1
# [13] = tested on: Calu-6
# How it was run: as §1
# [14] = tested on: LOU-NH91
# How it was run: as §1
# [15] = tested on: NCI-H1793
# How it was run: as §1
# [16] = tested on: HCC-827
# How it was run: as §1
# [17] = tested on: 201T
# How it was run: as §1
# [18] = tested on: NCI-H1734
# How it was run: as §1
# [19] = tested on: COR-L 105
# How it was run: as §1
# [20] = tested on: EBC-1
# How it was run: as §1
# [21] = tested on: LU99A
# How it was run: as §1
# [22] = tested on: NCI-H2170
# How it was run: as §1
smiles,measurement,setting,value
Nc1cccc2c1CN(C1CCC(=O)NC1=O)C2=O (centres undefined) [Lenalidomide] + C[C@]1(O)C[C@@H](c2nc(-c3ccc4ccc(-c5ccccc5)nc4c3)c3c(N)nccn32)C1 [Linsitinib] (partner 1 µM),relative viability,[1]; first compound 0.253 µM,0.589
same,relative viability,[1]; first compound 0.8 µM,0.732
same,relative viability,[1]; first compound 2.53 µM,0.71
same,relative viability,[1]; first compound 8 µM,0.85
same,relative viability,[2]; first compound 0.253 µM,0.961
same,relative viability,[2]; first compound 0.8 µM,0.994
same,relative viability,[2]; first compound 2.53 µM,1.01
same,relative viability,[2]; first compound 8 µM,1.03
same,relative viability,[3]; first compound 0.253 µM,0.952
same,relative viability,[3]; first compound 0.8 µM,1.03
same,relative viability,[3]; first compound 2.53 µM,1
same,relative viability,[3]; first compound 8 µM,0.808
same,relative viability,[4]; first compound 0.253 µM,1.08
same,relative viability,[4]; first compound 0.8 µM,1.12
same,relative viability,[4]; first compound 2.53 µM,1.06
same,relative viability,[4]; first compound 8 µM,1.11
same,relative viability,[5]; first compound 0.253 µM,0.992
same,relative viability,[5]; first compound 0.8 µM,1.15
same,relative viability,[5]; first compound 2.53 µM,1.21
same,relative viability,[5]; first compound 8 µM,1.08
same,relative viability,[6]; first compound 0.253 µM,0.861
same,relative viability,[6]; first compound 0.8 µM,0.93
same,relative viability,[6]; first compound 2.53 µM,1.19
same,relative viability,[6]; first compound 8 µM,0.792
same,relative viability,[7]; first compound 0.253 µM,0.689
same,relative viability,[7]; first compound 0.8 µM,0.548
same,relative viability,[7]; first compound 2.53 µM,0.601
same,relative viability,[7]; first compound 8 µM,0.424
same,relative viability,[8]; first compound 0.253 µM,0.751
same,relative viability,[8]; first compound 0.8 µM,0.752
same,relative viability,[8]; first compound 2.53 µM,0.773
same,relative viability,[8]; first compound 8 µM,0.703
same,relative viability,[9]; first compound 0.253 µM,0.55
same,relative viability,[9]; first compound 0.8 µM,0.466
same,relative viability,[9]; first compound 2.53 µM,0.605
same,relative viability,[9]; first compound 8 µM,0.383
same,relative viability,[10]; first compound 0.253 µM,0.992
same,relative viability,[10]; first compound 0.8 µM,0.91
same,relative viability,[10]; first compound 2.53 µM,1.18
same,relative viability,[10]; first compound 8 µM,0.906
same,relative viability,[11]; first compound 0.253 µM,0.821
same,relative viability,[11]; first compound 0.8 µM,0.83
same,relative viability,[11]; first compound 2.53 µM,1.15
same,relative viability,[11]; first compound 8 µM,0.787
same,relative viability,[12]; first compound 0.253 µM,1.03
same,relative viability,[12]; first compound 0.8 µM,0.927
same,relative viability,[12]; first compound 2.53 µM,1.08
same,relative viability,[12]; first compound 8 µM,1.04
same,relative viability,[13]; first compound 0.253 µM,0.836
same,relative viability,[13]; first compound 0.8 µM,0.984
same,relative viability,[13]; first compound 2.53 µM,1.12
same,relative viability,[13]; first compound 8 µM,0.818
same,relative viability,[14]; first compound 0.253 µM,0.912
same,relative viability,[14]; first compound 0.8 µM,0.977
same,relative viability,[14]; first compound 2.53 µM,0.922
same,relative viability,[14]; first compound 8 µM,0.847
same,relative viability,[15]; first compound 0.253 µM,1.02
same,relative viability,[15]; first compound 0.8 µM,0.728
same,relative viability,[15]; first compound 2.53 µM,1.13
same,relative viability,[15]; first compound 8 µM,0.512
same,relative viability,[16]; first compound 0.253 µM,0.939
same,relative viability,[16]; first compound 0.8 µM,0.944
same,relative viability,[16]; first compound 2.53 µM,0.995
same,relative viability,[16]; first compound 8 µM,1.07
same,relative viability,[17]; first compound 0.253 µM,1.08
same,relative viability,[17]; first compound 0.8 µM,1.18
same,relative viability,[17]; first compound 2.53 µM,1.05
same,relative viability,[17]; first compound 8 µM,0.908
same,relative viability,[18]; first compound 0.253 µM,0.878
same,relative viability,[18]; first compound 0.8 µM,1
same,relative viability,[18]; first compound 2.53 µM,0.934
same,relative viability,[18]; first compound 8 µM,0.688
same,relative viability,[19]; first compound 0.253 µM,0.839
same,relative viability,[19]; first compound 0.8 µM,0.774
same,relative viability,[19]; first compound 2.53 µM,0.738
same,relative viability,[19]; first compound 8 µM,1.12
same,relative viability,[20]; first compound 0.253 µM,0.826
same,relative viability,[20]; first compound 0.8 µM,0.849
same,relative viability,[20]; first compound 2.53 µM,1.09
same,relative viability,[20]; first compound 8 µM,0.774
same,relative viability,[21]; first compound 0.253 µM,0.51
same,relative viability,[21]; first compound 0.8 µM,0.554
same,relative viability,[21]; first compound 2.53 µM,0.466
same,relative viability,[21]; first compound 8 µM,0.352
Nc1cccc2c1CN(C1CCC(=O)NC1=O)C2=O (centres undefined) [Lenalidomide] + CC1(C)CCC(c2ccc(Cl)cc2)=C(CN2CCN(c3ccc(C(=O)NS(=O)(=O)c4ccc(N[C@H](CCN5CCOCC5)CSc5ccccc5)c(S(=O)(=O)C(F)(F)F)c4)cc3)CC2)C1 [Navitoclax] (partner 0.5 µM),relative viability,[2]; first compound 0.253 µM,0.963
same,relative viability,[2]; first compound 0.8 µM,0.971
same,relative viability,[2]; first compound 2.53 µM,1.01
same,relative viability,[2]; first compound 8 µM,1.06
same,relative viability,[3]; first compound 0.253 µM,0.788
same,relative viability,[3]; first compound 0.8 µM,0.747
same,relative viability,[3]; first compound 2.53 µM,0.842
same,relative viability,[3]; first compound 8 µM,0.721
same,relative viability,[4]; first compound 0.253 µM,0.775
same,relative viability,[4]; first compound 0.8 µM,0.782
same,relative viability,[4]; first compound 2.53 µM,0.816
same,relative viability,[4]; first compound 8 µM,0.835
same,relative viability,[5]; first compound 0.253 µM,1.08
same,relative viability,[5]; first compound 0.8 µM,1.09
same,relative viability,[5]; first compound 2.53 µM,1.14
same,relative viability,[5]; first compound 8 µM,1.14
same,relative viability,[6]; first compound 0.253 µM,0.882
same,relative viability,[6]; first compound 0.8 µM,0.855
same,relative viability,[6]; first compound 2.53 µM,1.13
same,relative viability,[6]; first compound 8 µM,0.843
same,relative viability,[7]; first compound 0.253 µM,1.02
same,relative viability,[7]; first compound 0.8 µM,1.19
same,relative viability,[7]; first compound 2.53 µM,1.13
same,relative viability,[7]; first compound 8 µM,1.08
same,relative viability,[22]; first compound 0.253 µM,0.552
same,relative viability,[22]; first compound 0.8 µM,0.595
same,relative viability,[22]; first compound 2.53 µM,0.593
same,relative viability,[22]; first compound 8 µM,0.481
same,relative viability,[9]; first compound 0.253 µM,0.834
same,relative viability,[9]; first compound 0.8 µM,0.72
same,relative viability,[9]; first compound 2.53 µM,0.842
same,relative viability,[9]; first compound 8 µM,0.654
same,relative viability,[10]; first compound 0.253 µM,1.14
same,relative viability,[10]; first compound 0.8 µM,1.12
same,relative viability,[10]; first compound 2.53 µM,1.19
same,relative viability,[10]; first compound 8 µM,1.2
same,relative viability,[11]; first compound 0.253 µM,1.4
same,relative viability,[11]; first compound 0.8 µM,1.33
same,relative viability,[11]; first compound 2.53 µM,1.7
same,relative viability,[11]; first compound 8 µM,1.3
same,relative viability,[12]; first compound 0.253 µM,0.317
same,relative viability,[12]; first compound 0.8 µM,0.28
same,relative viability,[12]; first compound 2.53 µM,0.346
same,relative viability,[12]; first compound 8 µM,0.277
same,relative viability,[13]; first compound 0.253 µM,0.814
same,relative viability,[13]; first compound 0.8 µM,0.805
same,relative viability,[13]; first compound 2.53 µM,0.803
same,relative viability,[13]; first compound 8 µM,0.863
same,relative viability,[14]; first compound 0.253 µM,0.614
same,relative viability,[14]; first compound 0.8 µM,0.631
same,relative viability,[14]; first compound 2.53 µM,0.673
same,relative viability,[14]; first compound 8 µM,0.692
same,relative viability,[15]; first compound 0.253 µM,0.349
same,relative viability,[15]; first compound 0.8 µM,0.449
same,relative viability,[15]; first compound 2.53 µM,0.426
same,relative viability,[15]; first compound 8 µM,0.315
same,relative viability,[16]; first compound 0.253 µM,1.06
same,relative viability,[16]; first compound 0.8 µM,0.977
same,relative viability,[16]; first compound 2.53 µM,1.01
same,relative viability,[16]; first compound 8 µM,1.07
same,relative viability,[17]; first compound 0.253 µM,1.21
same,relative viability,[17]; first compound 0.8 µM,1.22
same,relative viability,[17]; first compound 2.53 µM,1.19
same,relative viability,[17]; first compound 8 µM,1.22
same,relative viability,[18]; first compound 0.253 µM,0.802
same,relative viability,[18]; first compound 0.8 µM,0.831
same,relative viability,[18]; first compound 2.53 µM,1.01
same,relative viability,[18]; first compound 8 µM,0.796
same,relative viability,[19]; first compound 0.253 µM,0.45
same,relative viability,[19]; first compound 0.8 µM,0.81
same,relative viability,[19]; first compound 2.53 µM,0.717
same,relative viability,[19]; first compound 8 µM,0.883
same,relative viability,[20]; first compound 0.253 µM,0.374
same,relative viability,[20]; first compound 0.8 µM,0.399
same,relative viability,[20]; first compound 2.53 µM,0.434
same,relative viability,[20]; first compound 8 µM,0.481
same,relative viability,[21]; first compound 0.253 µM,0.853
same,relative viability,[21]; first compound 0.8 µM,0.963
same,relative viability,[21]; first compound 2.53 µM,0.925
same,relative viability,[21]; first compound 8 µM,0.502
